Counter-ions that a name gives are not always drawn. Numbered stars: 1 amine (or outer) side, 2 acyl side, 3 side chain; on linkers, the order of the positions; unused ones are H or OH. Square brackets hold non-standard residues; d marks the D form. Peptide text beside a SMILES is read from it. * marks the point of attachment. dDip = N[C@@H](C(=O)O)C(c1ccccc1)c1ccccc1; Dip = N[C@H](C(=O)O)C(c1ccccc1)c1ccccc1; CO = O=C([*:1])[*:2]; Tfa = O=C(C(F)(F)F)*; Ms = CS(=O)(=O)*
Assay: Inhibition of ET-1 stimulated arachidonic acid release in rabbit renal vascular smooth muscle cells
CC[C@H](C)[C@H](NC(=O)[C@H](CC(=O)O)NC(=O)[C@H](CCCNC(=N)N)NC(=O)[C@H](NC(C)=O)C(c1ccccc1)c1ccccc1)C(=O)N[C@H](C(=O)N[C@@H](Cc1c[nH]c2ccccc12)C(=O)O)[C@@H](C)CC [(S)-3-[(S)-2-((S)-2-Acetylamino-3,3-diphenyl-propionylamino)-5-guanidino-pentanoylamino]-N-((1S,2S)-1-{(1S,2S)-1-[(S)-1-carboxy-2-(1H-indol-3-yl)-ethylcarbamoyl]-2-methyl-butylcarbamoyl}-2-methyl-butyl)-succinamic acid] gave an IC50 of 14 nM.
CC[C@H](C)[C@H](NC(=O)[C@H](CC(=O)O)NC(=O)[C@H](CCC(=O)O)NC(=O)[C@H](NC(C)=O)C(c1ccccc1)c1ccccc1)C(=O)N[C@H](C(=O)N[C@@H](Cc1c[nH]c2ccccc12)C(=O)O)[C@@H](C)CC [(S)-4-((S)-2-Acetylamino-3,3-diphenyl-propionylamino)-4-[(S)-2-carboxy-1-((1S,2S)-1-{(1S,2S)-1-[(S)-1-carboxy-2-(1H-indol-3-yl)-ethylcarbamoyl]-2-methyl-butylcarbamoyl}-2-methyl-butylcarbamoyl)-ethylcarbamoyl]-butyric acid] (Ac-[dDip]EDIIW-OH) showed an IC50 of 130 nM.
With CC[C@H](C)[C@H](NC(=O)[C@H](CCC(=O)O)NC(=O)[C@H](CC(C)C)NC(=O)[C@@H](NC(C)=O)C(c1ccccc1)c1ccccc1)C(=O)N[C@H](C(=O)N[C@@H](Cc1c[nH]c2ccccc12)C(=O)O)[C@@H](C)CC [(S)-4-[(S)-2-((S)-2-Acetylamino-3,3-diphenyl-propionylamino)-4-methyl-pentanoylamino]-4-((1S,2S)-1-{(1S,2S)-1-[(S)-1-carboxy-2-(1H-indol-3-yl)-ethylcarbamoyl]-2-methyl-butylcarbamoyl}-2-methyl-butylcarbamoyl)-butyric acid] (Ac-[Dip]LEIIW-OH) the IC50 was 430 nM.
CC[C@H](C)[C@H](NC(=O)[C@H](CCC(=O)O)NC(=O)[C@H](CC(=O)O)NC(=O)[C@H](CC(C)C)NC(=O)[C@H](NC(C)=O)C(c1ccccc1)c1ccccc1)C(=O)N[C@@H](Cc1c[nH]c2ccccc12)C(=O)O [(S)-4-{(S)-2-[(S)-2-((S)-2-Acetylamino-3,3-diphenyl-propionylamino)-4-methyl-pentanoylamino]-3-carboxy-propionylamino}-4-{(1S,2S)-1-[(S)-1-carboxy-2-(1H-indol-3-yl)-ethylcarbamoyl]-2-methyl-butylcarbamoyl}-butyric acid] (Ac-[dDip]LDEIW-OH) showed an IC50 of 450 nM.
In the case of CC[C@H](C)[C@H](NC(=O)[C@H](CC(=O)O)NC(=O)[C@H](CC(C)C)NC(=O)[C@@H](NS(C)(=O)=O)C(c1ccccc1)c1ccccc1)C(=O)N[C@H](C(=O)N[C@@H](Cc1c[nH]c2ccccc12)C(=O)O)[C@@H](C)CC [(S)-N-((1S,2S)-1-{(1S,2S)-1-[(S)-1-Carboxy-2-(1H-indol-3-yl)-ethylcarbamoyl]-2-methyl-butylcarbamoyl}-2-methyl-butyl)-3-[(S)-2-((S)-2-methanesulfonylamino-3,3-diphenyl-propionylamino)-4-methyl-pentanoylamino]-succinamic acid] (Ms-[Dip]LDIIW-OH), the IC50 is reported as 2100 nM.
Work on CC[C@H](C)[C@H](NC(=O)[C@H](CC(=O)O)NC(=O)[C@H](CC(C)C)NC(=O)[C@@H](NC(=O)C(F)(F)F)C(c1ccccc1)c1ccccc1)C(=O)N[C@H](C(=O)N[C@@H](Cc1c[nH]c2ccccc12)C(=O)O)[C@@H](C)CC [(S)-N-((1S,2S)-1-{(1S,2S)-1-[(S)-1-Carboxy-2-(1H-indol-3-yl)-ethylcarbamoyl]-2-methyl-butylcarbamoyl}-2-methyl-butyl)-3-{(S)-2-[(S)-3,3-diphenyl-2-(2,2,2-trifluoro-acetylamino)-propionylamino]-4-methyl-pentanoylamino}-succinamic acid] (Tfa-[Dip]LDIIW-OH) yielded an IC50 of 1700 nM.
Work on CC[C@H](C)[C@H](NC(=O)[C@H](CC(=O)O)NC(=O)[C@H](CC(C)C)NC(=O)[C@@H](NC(=O)NC)C(c1ccccc1)c1ccccc1)C(=O)N[C@H](C(=O)N[C@@H](Cc1c[nH]c2ccccc12)C(=O)O)[C@@H](C)CC [(S)-N-((1S,2S)-1-{(1S,2S)-1-[(S)-1-Carboxy-2-(1H-indol-3-yl)-ethylcarbamoyl]-2-methyl-butylcarbamoyl}-2-methyl-butyl)-3-{(S)-4-methyl-2-[(S)-2-(3-methyl-ureido)-3,3-diphenyl-propionylamino]-pentanoylamino}-succinamic acid] ({NHMe-CO}-[Dip]LDIIW-OH) yielded an IC50 of 280 nM.
